# Assay results published in patent US20250051355A1, “COMPOUNDS, COMPOSITIONS, AND METHODS” (ACONCAGUA BIO, INC., priority 2023, published 2025).
# Tests used:
# [1] = biological target: human calcitonin receptor (CTR) and RAMP3 (AMY3) (Homo sapiens, UniProt O60896+P30988); assay: Amylin Receptor cAMP Assay II; assay type: cell-based; details: COS-7/AMY3 cells, cAMP dynamic 2 kit, read-out: Amylin Receptor cAMP Stimulation Activity: EC50
# How it was run: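 COS-7 cells stably co-expressing human CTR and RAMP3 (AMY3) were treated with 4-fold serially diluted compounds at 2000 cells/well in HBSS with 20 mM HEPES, 0.5 mM IBMX and 0.1% casein for 30 min at 37 °C. cAMP was measured by HTRF (cAMP-d2 plus anti-cAMP cryptate, 1 h at RT) with reads at 665/615 nm.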
# [2] = biological target: T1, human calcitonin receptor (CTR) (Homo sapiens, UniProt P30988); assay: Calcitonin receptor (CTR) cAMP Assay; assay type: cell-based; details: COS7-human CTR Clone #2 cells, cAMP dynamic 2 kit; read-out: Calcitonin Receptor cAMP Stimulation Activity: EC50
# T1 construct: expressed in transfected cells; host or cells: COS-7 (COS7-human CTR Clone #2)
# T1 sequence (P30988 25-474): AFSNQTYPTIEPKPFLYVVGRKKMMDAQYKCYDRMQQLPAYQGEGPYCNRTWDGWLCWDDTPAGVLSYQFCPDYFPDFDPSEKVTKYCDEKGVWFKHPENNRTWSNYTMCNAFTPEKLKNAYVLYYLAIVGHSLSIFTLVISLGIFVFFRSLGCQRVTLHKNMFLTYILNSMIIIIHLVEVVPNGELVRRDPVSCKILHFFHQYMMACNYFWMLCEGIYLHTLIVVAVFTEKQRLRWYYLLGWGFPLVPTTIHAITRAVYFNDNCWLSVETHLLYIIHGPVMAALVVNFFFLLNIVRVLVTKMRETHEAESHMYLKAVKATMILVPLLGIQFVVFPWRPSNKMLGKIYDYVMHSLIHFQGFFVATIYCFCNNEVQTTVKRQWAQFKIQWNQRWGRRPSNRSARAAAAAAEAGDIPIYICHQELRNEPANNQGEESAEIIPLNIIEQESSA
# How it was run: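 COS-7 cells stably expressing human CTR (2000 cells/well) treated with 4-fold serially diluted compounds in HBSS/20 mM HEPES/0.5 mM IBMX/0.1% casein, 30 min at 37° C. cAMP quantified by HTRF (cAMP-d2 plus anti-cAMP cryptate, 1 h RT), fluorescence read at 665 and 615 nm.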
# Sequence of human calcitonin receptor (CTR) and RAMP3 (AMY3) (O60896 24-148, one chain of several): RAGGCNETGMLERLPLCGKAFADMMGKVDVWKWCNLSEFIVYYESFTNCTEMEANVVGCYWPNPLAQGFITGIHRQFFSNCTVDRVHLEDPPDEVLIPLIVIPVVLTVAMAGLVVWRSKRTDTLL
Structure (SMILES),EC50 [1] [nM],EC50 [2] [nM]
"Cc1nnc(-c2c(CCC3CCOCC3)nc3c(c2-c2cc4ccnc(NCc5ccc(C#N)nc5)c4s2)S(=O)(=O)CC3C(C)C)o1 (stereo not drawn) [Compound 131, 5-[(2-(3-isopropyl-6-(5-methyl-1,3,4-oxadiazol-2-yl)-1,1-dioxo-5-[2-(tetrahydro-2H-pyran-4-yl)ethyl]-1λ^6-thia-4-aza-7-indanyl}-1-thia-6-aza-7-indenylamino)methyl]-2-pyridinecarbonitrile]",1490,332
"Cc1nnc(-c2c(CCC3CCOCC3)nc3c(c2-c2cc4ccnc(NCc5cnc(C#N)c(F)c5)c4s2)S(=O)(=O)CC3C(C)C)o1 (stereo not drawn) [Compound 133, 3-fluoro-5-[(2-(3-isopropyl-6-(5-methyl-1,3,4-oxadiazol-2-yl)-1,1-dioxo-5-[2-(tetrahydro-2H-pyran-4-yl)ethyl]-1λ^6-thia-4-aza-7-indanyl}-1-thia-6-aza-7-indenylamino)methyl]-2-pyridinecarbonitrile]",243,42.2
"Cc1nnc(-c2c(CCC3CCOCC3)nc3c(c2-c2cc4ccnc(NCc5ccc(C#N)c(F)n5)c4s2)S(=O)(=O)CC3C(C)C)o1 (stereo not drawn) [Compound 134, 2-fluoro-6-[(2-(3-isopropyl-6-(5-methyl-1,3,4-oxadiazol-2-yl)-1,1-dioxo-5-[2-(tetrahydro-2H-pyran-4-yl)ethyl]-1-2-thia-4-aza-7-indanyl}-1-thia-6-aza-7-indenylamino)methyl]nicotinonitrile]",1490,235
"Cc1nnc(-c2c(CCC3CCOCC3)nc3c(c2-c2ccc4c(c2)oc(=O)n4Cc2ccc(C#N)c(F)c2)C(=O)N2CCOCC32O)o1 (stereo not drawn) [Compound 135, 4-[(6-(4a-hydroxy-7-(5-methyl-1,3,4-oxadiazol-2-yl)-9-oxo-6-[2-(tetrahydro-2H-pyran-4-yl)ethyl]-1,2,4,4a-tetrahydro-9H-3-oxa-5,9a-diazafluoren-8-yl}-2-oxo-1,3-benzoxazol-3-yl)methyl]-2-fluorobenzonitrile]",166,5.38
"Cc1nnc(-c2c(CCC3CC(C)OC(C)C3)nc3c(c2-c2cc4ccnc(N[C@@H]5CCc6ncccc65)c4s2)S(=O)(=O)CC3C(C)C)o1 (stereo partly drawn) [Compound 136, N—(R)-4-aza-1-indanyl(2-(5-[2-(2,6-dimethyltetrahydro-2H-pyran-4-yl)ethyl]-3-isopropyl-6-(5-methyl-1,3,4-oxadiazol-2-yl)-1,1-dioxo-1λ^6-thia-4-aza-7-indanyl}-1-thia-6-aza-7-indenyl)amine]",309,34.9
Cc1nnc(-c2c(CCC3CCOCC3)nc3c(c2-c2cc4ccnc(Nc5ccc(F)c(F)c5)c4s2)S(=O)(=O)CC3C(C)C)o1 (stereo not drawn) [Compound 137],1970,276
"Cc1nnc(-c2c(CCC3CCOCC3)nc3c(c2-c2cc4ccnc(Cc5ccc(F)c(F)c5)c4s2)S(=O)(=O)CC3C(C)C)o1 (stereo not drawn) [Compound 138, 7-(7-[(3,4-difluorophenyl)methyl]-1-thia-6-aza-2-indenyl}-3-isopropyl-6-(5-methyl-1,3,4-oxadiazol-2-yl)-5-[2-(tetrahydro-2H-pyran-4-yl)ethyl]-1λ^6-thia-4-aza-1,1-indandione]",869,115
"Cc1nnc(-c2c(CCc3ccc(F)cc3)nc3c(c2-c2cc4ccnc(N[C@@H]5CCc6ncccc65)c4s2)c(=O)n2n3CCC2)o1 [Compound 139, 9-(7-[(R)-4-aza-1-indanylamino]-1-thia-6-aza-2-indenyl}-11-[2-(p-fluorophenyl)ethyl]-10-(5-methyl-1,3,4-oxadiazol-2-yl)-2,6,12-triazatricyclo[6.4.0.0^2,6]dodeca-1(8),9,11-trien-7-one]",150,8.78
"Cc1nnc(-c2c(CCc3ccc(F)cc3)nc3c(c2-c2ccc4c(c2)oc(=O)n4C(C)c2ccc(C#N)c(F)c2)c(=O)n2n3CCC2)o1 (stereo not drawn) [Compound 140, 2-fluoro-4-[1-(6-(11-[2-(p-fluorophenyl)ethyl]-10-(5-methyl-1,3,4-oxadiazol-2-yl)-7-oxo-2,6,12-triazatricyclo[6.4.0.0^2,6]dodeca-1(12),8,10-trien-9-yl}-2-oxo-1,3-benzoxazol-3-yl)ethyl]benzonitrile]",8.8,0.336
"Cc1nnc(-c2c(CCc3ccc(F)cc3)nc3c(c2-c2cnc4c(ccn4Cc4ccc(C#N)c(F)c4)c2)c(=O)n2n3CCC2)o1 [Compound 141, 2-fluoro-4-[(5-(11-[2-(p-fluorophenyl)ethyl]-10-(5-methyl-1,3,4-oxadiazol-2-yl)-7-oxo-2,6,12-triazatricyclo[6.4.0.0]dodeca-1(12),8,10-trien-9-yl}-1H-1,7-diazainden-1-yl)methyl]benzonitrile]",74.3,4.45
"Cc1nnc(-c2c(CCc3ccc(F)cc3)nc3c(c2-c2ccc4c(c2)oc(=O)n4Cc2ccc(C#N)cn2)c(=O)n2n3CCC2)o1 [Compound 142, 6-[(6-{11-[2-(p-fluorophenyl)ethyl]-10-(5-methyl-1,3,4-oxadiazol-2-yl)-7-oxo-2,6,12-triazatricyclo[6.4.0.0^2,6]dodeca-1(12),8,10-trien-9-yl}-2-oxo-1,3-benzoxazol-3-yl)methyl]nicotinonitrile]",58.9,1.23
"Cc1nnc(-c2c(CCC3CCOCC3)nc3c(c2-c2cnc4c(ccn4Cc4ccc(C#N)c(F)c4)c2)C(=O)N[C@H]3C(C)C)o1 [Compound 143, 4-[(5-{(S)-3-isopropyl-6-(5-methyl-1,3,4-oxadiazol-2-yl)-1-oxo-5-[2-(tetrahydro-2H-pyran-4-yl)ethyl]-2,4-diaza-7-indanyl}-1H-1,7-diazainden-1-yl)methyl]-2-fluorobenzonitrile]",79.4,6.35
"Cc1nnc(-c2c(CCC34CCC(CC3)OC4)nc3c(c2-c2ccc4c(c2)oc(=O)n4Cc2ccc(C#N)cn2)c(=O)n2n3CCC2)o1 [Compound 144, 6-((6-[10-(5-methyl-1,3,4-oxadiazol-2-yl)-11-(2-(2-oxabicyclo[2.2.2]oct-4-yl)ethyl}-7-oxo-2,6,12-triazatricyclo[6.4.0.0^2,^6]dodeca-1(12),8,10-trien-9-yl]-2-oxo-1,3-benzoxazol-3-yl}methyl)nicotinonitrile]",83.4,2.58
"Cc1cc(-c2c(CCC3CCOCC3)nc3c(c2-c2ccc4c(c2)oc(=O)n4Cc2ccc(C#N)cn2)S(=O)(=O)N2CCC[C@@H]32)ccn1 [Compound 145, 6-[(6-((2S)-10-(2-methyl-4-pyridyl)-7,7-dioxo-11-[2-(tetrahydro-2H-pyran-4-yl)ethyl]-7λ^6-thia-6,12-diazatricyclo[6.4.0.0^2,6]dodeca-1(12),8,10-trien-9-yl}-2-oxo-1,3-benzoxazol-3-yl)methyl]nicotinonitrile]",78.8,6.17
"COc1ccnc(-c2c(CCC3CCOCC3)nc3c(c2-c2cc4ccnc(N[C@@H]5CCc6ncccc65)c4s2)S(=O)(=O)CC3C(C)C)n1 (stereo partly drawn) [Compound 146, N—(R)-4-aza-1-indanyl(2-(3-isopropyl-6-(4-methoxy-2-pyrimidinyl)-1,1-dioxo-5-[2-(tetrahydro-2H-pyran-4-yl)ethyl]-1λ^6-thia-4-aza-7-indanyl}-1-thia-6-aza-7-indenyl)amine]",58.4,4.06
"Cc1nnc(-c2c(CCC34CCC(CC3)OC4)nc3c(c2-c2cc4ccnc(N[C@@H]5CCc6ncccc65)c4s2)c(=O)n2n3CCC2)o1 [Compound 147, 6-((2S)-2-methyl-10-(2-methyl-4-pyridyl)-7-oxo-11-[2-(tetrahydro-2H-pyran-4-yl)ethyl]-6,12-diazatricyclo[6.4.0.0,^1I]dodeca-1(12),8,10-trien-9-yl}-3-[(5-chloro-3-fluoro-2-pyridyl)methyl]-1,3-benzoxazol-2(3H)-one]",180,17.2
"Cc1cc(-c2c(CCC3CCOCC3)nc3c(c2-c2ccc4c(c2)oc(=O)n4Cc2ncc(Cl)cc2F)C(=O)N2CCC[C@@]32C)ccn1 [Compound 148, 6-((2S)-2-methyl-10-(2-methyl-4-pyridyl)-7-oxo-11-[2-(tetrahydro-2H-pyran-4-yl)ethyl]-6,12-diazatricyclo[6.4.0.0,^1I]dodeca-1(12),8,10-trien-9-yl}-3-[(5-chloro-3-fluoro-2-pyridyl)methyl]-1,3-benzoxazol-2(3H)-one]",839,65.1
"CC(C)c1nnc(-c2c(CCC3CCOCC3)nc3c(c2-c2ccc4c(c2)oc(=O)n4Cc2ccc(C#N)c(F)c2)c(=O)n2n3CCC2)o1 [Compound 150, 2-fluoro-4-[(6-(10-(5-isopropyl-1,3,4-oxadiazol-2-yl)-7-oxo-11-[2-(tetrahydro-2H-pyran-4-yl)ethyl]-2,6,12-triazatricyclo[6.4.0.0^2,6]dodeca-1(8),9,11-trien-9-yl}-2-oxo-1,3-benzoxazol-3-yl)methyl]benzonitrile]",15.2,1.86
